# Measurements reported in patent US10471094B2, “Methods for reducing ischemia-reperfusion injury via targeted control of blood gases” (Cedars-Sinai Medical Center, priority 2013, dated 2019).
# System: Canines
# Experiment: Canine ischemia/reperfusion (I/R) protocol, 3 hours no-flow LAD occlusion then reperfusion, MRI at week 8
# Type: in vivo
# Description: Canines (n=9) underwent left thoracotomy at the 4th intercostal space and a hydraulic occluder was secured around the left-anterior descending coronary artery after the first principal diagonal. Subsequently a Doppler flow probe was affixed distal to the hydraulic occluder and animals were allowed to recover for 7 days. Following recovery, animals were subjected to ischemia/reperfusion (I/R) protocol and studied with magnetic resonance imaging. The ischemia protocol consisted of inflicting no-flow ischemia by inflating the hydraulic occlude (confirmed by the Doppler flow velocity) for 3 hours. Subsequently all animals were reperfused by deflation of the hydraulic occluder.
# [1] = 100% O2 versus room air during reperfusion, week 8
smiles,measurement,setting,value
"O=O [100% O2, oxygen]",chronic scar size larger versus animals breathing room air during reperfusion,[1],approximately 25%
same,left ventricular ejection fraction (LVEF) reduced versus animals breathing room air during reperfusion,[1],12%
same,LVEF at week 8 post MI,"gas breathed during reperfusion, 3.0 T MRI, week 8 post I/R injury, left-ventricular ejection fraction",39.7 +/− 4.9
same,Scar Volume at week 8 post MI (% LV),"gas breathed during reperfusion, 3.0 T MRI, week 8 post I/R injury, scar volume as percentage of left ventricular volume",15.0 +/− 3.8 % LV
